{"source": "paper PMC12351953", "about": "“SCAN-ACT: adoptive T cell therapy target discovery through single-cell transcriptomics” (Genome Medicine, 2025)", "molecular_target": "HLA-A*02:01 (Homo sapiens, UniProt P04439, D140Y/D185E/D98H/E176V/E277Q/G131W/G231S/I119V/I121R/I166T/I218V/L300P/L318F/N151K/N90K/P208A/P217A/Q86G/Q94H/R138H/R169H/T345S)", "assay": "IMMUNE on-yeast peptide competition against biotinylated indicator peptide", "assay_type": "binding", "details": "yeast-displayed HLA, 0.5 µM biotinylated indicator peptide (Bio-KLT), 20-fold more concentrated test peptide, overnight to equilibrium, flow cytometry", "from_the_text": "To construct plasmids driving the expression of non-covalent HLA-I heterodimers, the commercially available backbone vector pRS315 was modified. Briefly, the entire expression cassette containing genes encoding the Aga2 leader sequence, the ectodomain of a particular HLA-I heavy chain allele (A*02:01 or A*11:01 or B*35:01 or C*12:03), the Aga2p yeast native protein subunit, an HA epitope tag, and the MFα terminator was cloned to the downstream of the GAL10 promoter in pRS315, so that the expressed HLA-I heavy chain ectodomain was fused to the N-terminus of Aga2p for yeast surface display. […]\nA sufficient amount of galactose-induced yeast cells was collected by centrifugation and labeled by primary antibodies in PBS + 0.5% bovine serum albumin (BSA) for 1 h on ice. […] FL1 and FL4 fluorescence channels were selected for Alexa Fluor 488 and Alexa Fluor 647, respectively, according to the fluorophore selected at the secondary labeling step as mentioned above. […]\nTo design indicator peptides appropriate for evaluation of HLA peptide binding on the surface of yeast cells and for downstream competitive assay development, the reported epitope repertoire for each aforementioned HLA allele from the Immune Epitope Database was carefully analyzed. […]", "data": [{"sequence": "RLHRIIPKI [test peptide from SSX1 (printed SSXI), pMHC target identified through PS-TRACT]", "values": [{"measurement": "binding to A*02:01 (IMMUNE)", "value": "bound"}]}]}
